Source: PubChem BioAssay AID1959 (Broad Institute, 2009)
Calls of active or inactive are those of the source.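 How the source made its calls: active means growth-inhibition EC50 no more than tenfold above the top tested dose; inconclusive means flat fit between 30% and 70% inhibition, or unreliable fit; inactive means EC50 more than tenfold above the top tested dose.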

Tested on: E. coli NEB5alpha growth, BacTiter-Glo luminescence, 4 h
Test: Escherichia coli growth inhibition, dose response, counter-screen for MEX-5/POS-1 RNA-binding inhibitor project, luminescence, NEB5alpha (AID 1959);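 further: pUC19-transformed ampicillin-resistant cells grown in LB with ampicillin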

Compound	EC50
CCC(NC(C)C)C(O)c1ccc(O)c(O)c1 (stereo not given)	> 11 µM (inactive)
CCCn1cc2c3c(cccc31)C1CC(C)CN(C)C1C2 (stereo not given)	> 11 µM (inactive)
O=c1[nH]c(=S)[nH]c2c1C(c1ccc(Br)cc1)c1c([nH]c(=S)[nH]c1=O)O2	> 11 µM (inactive)
Oc1ccc(O)c(-c2cnns2)c1	> 11 µM (inactive)
Cc1cnc(C(=O)NNC(=O)c2ccc(Br)cc2)cn1	> 11 µM (inactive)
Cc1[nH]nc(NNC(=O)c2ccccc2)c1[N+](=O)[O-]	> 11 µM (inactive)
O=C(N/N=C/c1ccc(-c2cccc([N+](=O)[O-])c2)o1)c1ccc([N+](=O)[O-])cc1	> 11 µM (inactive)
COC(=O)CCCC1=CC2=CC(=O)C(C)(OC(=O)c3ccc(Cl)nc3)C(=O)C2=CO1 (stereo not given)	> 11 µM (inactive)
O=C(O)C1Nc2c(C(F)(F)F)ccc(Cl)c2C2C=CCC12 (stereo not given)	> 11 µM (inactive)
CCn1c(SCc2ccc(C)cc2)nnc1C1CCN(S(=O)(=O)c2ccc(OC)cc2)CC1	> 11 µM (inactive)
Cc1c(N=Cc2c(O)n(C)c(=O)c3ccccc23)c(=O)n(-c2ccccc2)n1C	> 11 µM (inactive)
N#CC1=C(N)C(C#N)(C#N)[C@H](c2ccsc2)[C@H]2COCC=C12	> 11 µM (inactive)
O=C(N/N=C/c1cccnc1)c1cc(O)c(O)c(O)c1	> 11 µM (inactive)
CC(=O)c1c(C(C)=O)c(C)n(-c2ccc(C(=O)O)cc2)c1C	> 11 µM (inactive)
Oc1[nH]c2ccccc2c1N=Nc1ccc(F)cc1	> 11 µM (inactive)
CC(=O)NC1=NC(=O)/C(=C/c2cc(C)n(-c3cccc(C(=O)O)c3)c2C)S1	> 11 µM (inactive)
O=C1C=C(Nc2cccc3cccnc23)c2ccccc2C1=O	> 11 µM (inactive)
Cc1cc(/C=C2\C(=O)NC(=O)N(C)C2=O)c(C)n1-c1ccc2c(c1)OCO2	> 11 µM (inactive)
CCN(CC)c1ccc(C=N/C(C#N)=C(\N)C#N)cc1	> 11 µM (inactive)
Cc1ccc(NCC(=O)N/N=C/c2ccc(C(=O)O)cc2)cc1	> 11 µM (inactive)
Cn1ncc2c(NNC(=O)c3ccc(O)cc3)ncnc21	> 11 µM (inactive)
CCC(C)n1c(=N)c(C#N)cc2c(=O)n3cccc(C)c3nc21 (stereo not given)	> 11 µM (inactive)
COc1ccc(N2C(=O)/C(=C/c3ccco3)C(=O)NC2=S)cc1	> 11 µM (inactive)
Cc1c(CN2CCCCC2)c(O)n(CCCO)c(=O)c1C#N	> 11 µM (inactive)

Compound	EC50
O=C1C2=C(SCCS2)C(=O)N1c1ccccc1	> 11 µM (inactive)
Cc1ccc(NC(=O)CN2C(=O)S/C(=C\c3cccn3-c3cccc(C(=O)O)c3)C2=O)c(C)c1	> 11 µM (inactive)
COc1ccc(/C=c2\sc3nc(-c4ccccc4OC)nn3c2=O)c(OC)c1	> 11 µM (inactive)
Cc1cccc(NC(=O)c2sc3nc(-c4ccccc4)cn3c2C)n1	> 11 µM (inactive)
Cc1cc(/C=N/Nc2ccc([N+](=O)[O-])cn2)c(C)n1-c1ccc(C(=O)O)cc1	> 11 µM (inactive)
COc1c(O)cccc1[C@@H](O)C1CCN(CCc2ccc(F)cc2)CC1	> 11 µM (inactive)
Cc1c(Cl)cccc1N1C(=O)NC(=O)/C(=C\c2cc(C)n(-c3cccc(C(=O)O)c3C)c2C)C1=O	> 11 µM (inactive)
O=C(N/N=C/c1c(O)n(CCc2ccccc2)c(=O)[nH]c1=O)c1ccncc1	> 11 µM (inactive)
O=[N+]([O-])c1ccc(/C=N/n2cnc3ccccc32)s1	> 11 µM (inactive)
CC(=O)Nc1ccc(S(=O)(=O)NCc2nc(-c3cccc(C)c3)no2)cc1	> 11 µM (inactive)
CC(=O)Nc1cccc(Oc2nc(-c3ccccn3)nc3ccccc23)c1	> 11 µM (inactive)
COc1ccc(N2C(=O)/C(=C/c3ccc(N(C)C)o3)C(=O)NC2=S)cc1	> 11 µM (inactive)
CN1C(=O)C(=Cc2cn(CC(=O)N3CCCCC3)c3ccccc23)C(=O)N(C)C1=O	> 11 µM (inactive)
Cn1c(O)c(/C=C2/C=CC=N2)c(=O)[nH]c1=O	> 11 µM (inactive)
NS(=O)(=O)c1ccc(-c2ccc(/C=C3\SC(=O)NC3=O)o2)cc1	> 11 µM (inactive)
O=C1c2ccccc2C(=O)c2c1cccc2N(CCO)CCO	> 11 µM (inactive)
S=c1[nH]c2ccccc2n2c(=S)[nH]nc12	> 11 µM (inactive)
CCn1c(=N)c(S(=O)(=O)c2ccccc2)cc2c(=O)n3ccccc3nc21	> 11 µM (inactive)
CCN(C(=O)c1cc(Cl)ccc1OC)C1CCCCC1	> 11 µM (inactive)
O=C(O)c1ccc2c(c1)[C@@H]1C=CC[C@@H]1[C@H](c1ccccn1)N2	> 11 µM (inactive)
O=C(/C=C/c1c(Cl)cccc1Cl)N1CCOCC1	> 11 µM (inactive)
CC(C)(C)OC(=O)NCCCC1=CC2=CC(=O)C(C)(OC(=O)C3CCCC3)C(=O)C2=CO1 (stereo not given)	> 11 µM (inactive)
CC(C)(C)c1ccc(C(=O)Nc2cccc3ncccc23)cc1	> 11 µM (inactive)
COc1cccc(N=Nc2c(=O)[nH]n3c(=O)cc(C)[nH]c23)c1	> 11 µM (inactive)

Compound	EC50
O=C(NCc1ccccn1)C1Nc2ccc(C(F)(F)F)cc2C2C=CCC12 (stereo not given)	> 11 µM (inactive)
COc1ccccc1Nc1nc2nonc2nc1N1CCCCC1C (stereo not given)	> 11 µM (inactive)
O=c1oc2ccc3ccccc3c2cc1-c1nc2ccccc2o1	> 11 µM (inactive)
COc1ccc(C2C(C(=O)c3ccco3)=C(O)C(=O)N2c2nnc(C)s2)cc1 (stereo not given)	> 11 µM (inactive)
CCCCc1ccc(/C=C2\C(=O)ON=C2c2ccccc2)s1	> 11 µM (inactive)
O=C(NCc1ccccn1)C1Nc2ccc(OC(F)(F)F)cc2C2C=CCC12 (stereo not given)	> 11 µM (inactive)
CC1CCCN(c2nc3ccccc3nc2C(C#N)S(=O)(=O)c2cccs2)C1 (stereo not given)	> 11 µM (inactive)
O=C(CCSc1nc2ccccc2s1)N/N=C/c1c(O)ccc2ccccc12	> 11 µM (inactive)
COc1ccc(OC)c(S(=O)(=O)Nc2ccc(O)c(Sc3ncn[nH]3)c2)c1	> 11 µM (inactive)
CCN(CC)CCN=Cc1c(O)n(Cc2ccccc2)c(=O)[nH]c1=O	> 11 µM (inactive)
O=C1c2cccc3c(N4CCCCC4)ccc(c23)C(=O)N1c1ccccn1	> 11 µM (inactive)
CC(C)N1CCc2c(sc(NC(=O)c3ccc(S(=O)(=O)N(C)CC4CCCO4)cc3)c2C(N)=O)C1 (stereo not given)	> 11 µM (inactive)
N#CC1=C(N)Oc2cc(O)c(Cl)cc2C1c1ccccc1F (stereo not given)	> 11 µM (inactive)
CSc1sccc1/C=C(/C#N)C(=O)c1ccco1	> 11 µM (inactive)
O=C1C2CC=C(Cl)CC2C(=O)N1CCCCCCN1C(=O)C2CC=C(Cl)CC2C1=O (stereo not given)	> 11 µM (inactive)
Cc1cc(C=C2C(=O)c3ccccc3C2=O)c(C)n1-c1ccc(Cl)cc1	> 11 µM (inactive)
Cn1c(O)c(/C=C2\C=Nc3ccccc32)c(=O)n(C)c1=O	> 11 µM (inactive)
O=C(COC(=O)C1CCCC1)Nc1ncc(Cl)cc1Cl	> 11 µM (inactive)
CC(=O)N1CCN(c2ccc(N=Cc3c(O)n(Cc4ccccc4)c(=O)[nH]c3=O)cc2)CC1	> 11 µM (inactive)
CCCNC(=O)c1ccc2c(=O)c(O)c(-c3cccc(Br)c3)[nH]c2c1	> 11 µM (inactive)
CN1CCc2cc3c(c4c2[C@H]1[C@H](O)c1ccccc1-4)OCO3	> 11 µM (inactive)
Oc1ccc(/C=C/c2cc(O)cc(O)c2)cc1	> 11 µM (inactive)
